Like-named read-outs stand apart in the source and are kept apart here.
Molecular target: T1, VAV1 (Homo sapiens, UniProt P15498+Q96SW2)
T1 construct: A heterozygous VAV1 C-terminal HiBiT knock-in pool was generated at Monte Rosa Therapeutics from a clonal Jurkat cell; endogenous in cells; host or cells: Jurkat clone stably expressing LgBiT, homozygous GSPT1-G575N; heterozygous VAV1-HiBiT knock-in pool
Test: VAV1 degradation activity, VAV1-HiBiT knock-in Jurkat luminescence assay (Example A, Table 1)
Format: cell-based
Settings: VAV1-HiBiT knock-in Jurkat cells; for Dmax: Jurkat
How it was run: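 Jurkat cells carrying VAV1-HiBiT knock-in, plated in RPMI/10% FBS with Endurazine live-cell substrate and pre-incubated ~16 h at 37° C. Compound dosed from 10 μM stock; luminescence read 6 and 24 h later. Response normalised to plate negative/positive controls, EC50 from 3-parameter logistic fit (hillslope 1).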

[1] = luminescence read at 6 and 24 hours, read-out: VAV1 Dmax %
[2] = luminescence read at 6 and 24 hours, read-out: VAV1 Dmax %, class
[3] = luminescence read at 6 and 24 hours, read-out: VAV1 DC50
[4] = luminescence read at 6 and 24 hours, read-out: VAV1 DC50 (nM), class
[5] = luminescence read at 6 and 24 hours after compound addition, read-out: VAV1 Dmax %
[6] = luminescence read at 6 and 24 hours after compound addition, read-out: VAV1 Dmax %, class
[7] = luminescence read at 6 and 24 hours after compound addition, read-out: VAV1 DC50
[8] = luminescence read at 6 and 24 hours after compound addition, read-out: VAV1 DC50 (nM), class

SMILES | Dmax [1] | Dmax [2] | DC50 [3] | DC50 [4] | VAV1 Dmax %, class (luminescence read at 6 and 24 hours) | Dmax [5] | Dmax [6] | DC50 [7] | DC50 [8]
O=C1CCC(c2cccc(-c3ccc(N4C(=O)CCC45CCC5)nc3)c2Cl)C(=O)N1 (stereo not shown) [Compound 394, 3-(2-chloro-3-(6-(6-oxo-5-azaspiro[3.4]octan-5-yl)pyridin-3-yl)phenyl)piperidine-2,6-dione] | 88.7% | 60 to 90% | 36.2 nM | ≤ 100 nM | – | – | – | – | –
Cn1ccc(Cn2ccc3cc(-c4cccc(C5CCC(=O)NC5=O)c4Cl)ccc32)n1 (stereo not shown) [Compound 499, 3-(2-chloro-3-(1-((1-methyl-1H-pyrazol-3-yl)methyl)-1H-indol-5-yl)phenyl)piperidine-2,6-dione] | – | – | – | – | – | 97.9% | > 90% | 5.45 nM | ≤ 100 nM
O=C1CCC(c2cccc(-c3ccc(C(=O)n4cccc4)cc3)c2Cl)C(=O)N1 (stereo not shown) [Compound 222, 3-(2-chloro-4′-(1H-pyrrole-1-carbonyl)-[1,1′-biphenyl]-3-yl)piperidine-2,6-dione] | 91% | > 90% | 127 nM | 100 to 1000 nM | – | – | – | – | –
O=C1CCC(c2cccc(-c3ccc(CN4C(=O)COCC45CC5)cc3)c2Cl)C(=O)N1 (stereo not shown) [Compound 264] | 84.6% | 60 to 90% | 39.5 nM | ≤ 100 nM | – | – | – | – | –
CN1CCN(Cc2ccc(-c3cccc(C4CCC(=O)NC4=O)c3Cl)cc2)C(=O)C1 (stereo not shown) [Compound 277] | 76.8% | 60 to 90% | 647 nM | 100 to 1000 nM | – | – | – | – | –
O=C1CCC(c2cccc(-c3ccc(NC(=O)c4ccon4)cc3)c2Cl)C(=O)N1 (stereo not shown) [Compound 229, N-(2′-chloro-3′-(2,6-dioxopiperidin-3-yl)-[1,1′-biphenyl]-4-yl)isoxazole-3-carboxamide] | 82.7% | 60 to 90% | 79.3 nM | ≤ 100 nM | – | – | – | – | –
Nc1ccc(-c2cccc(C3CCC(=O)NC3=O)c2Cl)cc1 (stereo not shown) [Compound 130, 3-(4′-amino-2-chloro-[1,1′-biphenyl]-3-yl)piperidine-2,6-dione] | 84.6% | 60 to 90% | 37.1 nM | ≤ 100 nM | – | – | – | – | –
O=C1CCC(c2cccc(-c3ccc(N4C(=O)OCCC45CC5)nc3)c2Cl)C(=O)N1 (stereo not shown) [Compound 351, 3-(2-chloro-3-(6-(5-oxo-6-oxa-4-azaspiro[2.5]octan-4-yl)pyridin-3-yl)phenyl)piperidine-2,6-dione] | 87% | 60 to 90% | 82.5 nM | ≤ 100 nM | – | – | – | – | –
O=C1CCC(c2cccc(-c3ccc(N4CCCCC4=O)nc3)c2Cl)C(=O)N1 (stereo not shown) [Compound 450, 3-(2-chloro-3-(6-(2-oxopiperidin-1-yl)pyridin-3-yl)phenyl)piperidine-2,6-dione] | 75.9% | 60 to 90% | 173 nM | 100 to 1000 nM | – | – | – | – | –
CN1CCCN(c2ccc(-c3cccc(C4CCC(=O)NC4=O)c3Cl)cn2)C1=O (stereo not shown) [Compound 435, 3-(2-chloro-3-(6-(3-methyl-2-oxotetrahydropyrimidin-1(2H)-yl)pyridin-3-yl)phenyl)piperidine-2,6-dione] | 70.8% | 60 to 90% | 330 nM | 100 to 1000 nM | – | – | – | – | –
N#Cc1ccc(-c2cccc(C3CCC(=O)NC3=O)c2Cl)cc1 (stereo not shown) [Compound 142] | 69.9% | 60 to 90% | 705 nM | 100 to 1000 nM | – | – | – | – | –
O=C1CCC(c2cccc(-c3cnc(Cn4ccccc4=O)c(F)c3)c2Cl)C(=O)N1 (stereo not shown) [Compound 412, 3-(2-chloro-3-(5-fluoro-6-((2-oxopyridin-1(2H)-yl)methyl)pyridin-3-yl)phenyl)piperidine-2,6-dione] | 67.3% | 60 to 90% | 418 nM | 100 to 1000 nM | – | – | – | – | –
Cn1ccc(CN2C(=O)Cc3cc(-c4cccc(C5CCC(=O)NC5=O)c4Cl)ccc32)n1 (stereo not shown) [Compound 496, 3-(2-chloro-3-(1-((1-methyl-1H-pyrazol-3-yl)methyl)-2-oxoindolin-5-yl)phenyl)piperidine-2,6-dione] | – | – | – | – | – | 95.6% | > 90% | 12.7 nM | ≤ 100 nM
O=C1CCC(c2cccc(-c3ccc(NC(=O)C4CCOC4)cc3)c2Cl)C(=O)N1 (stereo not shown) [Compound 227, N-[4-[2-chloro-3-(2,6-dioxo-3-piperidyl)phenyl]phenyl]tetrahydrofuran-3-carboxamide] | 77.4% | 60 to 90% | 81.8 nM | ≤ 100 nM | – | – | – | – | –
Cn1ccc(=O)n1Cc1ccc(-c2cccc(C3CCC(=O)NC3=O)c2Cl)cc1 (stereo not shown) [Compound 158, 3-(2-chloro-4′-((2-methyl-5-oxo-2,5-dihydro-1H-pyrazol-1-yl)methyl)-[1,1′-biphenyl]-3-yl)piperidine-2,6-dione] | 81.7% | 60 to 90% | 74.3 nM | ≤ 100 nM | – | – | – | – | –

More lines, in order of falling DC50 [3], values ahead:

Dmax [1] | Dmax [2] | DC50 [3] | DC50 [4] | VAV1 Dmax %, class (luminescence read at 6 and 24 hours) | Dmax [5] | Dmax [6] | DC50 [7] | DC50 [8] | SMILES
88% | 60 to 90% | 32.5 nM | ≤ 100 nM | – | – | – | – | – | C[C@H]1COCC(=O)N1Cc1ccc(-c2cccc(C3CCC(=O)NC3=O)c2Cl)cc1 (stereo partly shown) [Compound 265]
97.7% | > 90% | 18.1 nM | ≤ 100 nM | – | – | – | – | – | Nc1ccc(-c2cccc(C3CCC(=O)NC3=O)c2Cl)cc1Cl (stereo not shown) [Compound 105]
93.9% | > 90% | 17.7 nM | ≤ 100 nM | – | – | – | – | – | O=C1CCC(c2cccc(-c3ccc(N4CCCC(F)(F)C4=O)cc3)c2Cl)C(=O)N1 (stereo not shown) [Compound 322]
96.8% | > 90% | 14.1 nM | ≤ 100 nM | – | – | – | – | – | O=C1CCC(c2cccc(-c3ccc(Nc4ccccn4)cc3)c2Cl)C(=O)N1 (stereo not shown) [Compound 215, 3-(2-chloro-4′-(pyridin-2-ylamino)-[1,1′-biphenyl]-3-yl)piperidine-2,6-dione]
94.5% | – | 12.8 nM | ≤ 100 nM | A (A represents a Dmax % >90%) | – | – | – | – | CC1(C)CN(c2cccc(-c3ccc(CC4CCC(=O)NC4=O)cc3Cl)c2)C(=O)CO1 (stereo not shown) [Compound 268]
94.5% | > 90% | 12.6 nM | ≤ 100 nM | – | – | – | – | – | O=C1CCC(c2cccc(-c3ccc(CN4CC(C(F)(F)F)OCC4=O)cc3)c2Cl)C(=O)N1 (stereo not shown) [Compound 258]
95.4% | > 90% | 11.7 nM | ≤ 100 nM | – | – | – | – | – | O=C1CCC(c2cccc(-c3ccc(CN4Cc5ncccc5C4=O)cc3)c2Cl)C(=O)N1 (stereo not shown) [Compound 298]
95% | > 90% | 11.5 nM | ≤ 100 nM | – | – | – | – | – | O=C1CCC(c2cccc(-c3ccc(N4COCCC4=O)cc3)c2Cl)C(=O)N1 (stereo not shown) [Compound 467, 3-(2-chloro-4′-(4-oxo-1,3-oxazinan-3-yl)-[1,1′-biphenyl]-3-yl)piperidine-2,6-dione]
94.2% | > 90% | 9.66 nM | ≤ 100 nM | – | – | – | – | – | CN1CC(=O)N(Cc2ccc(-c3cccc(C4CCC(=O)NC4=O)c3Cl)cc2)CC1(C)C (stereo not shown) [Compound 257]
95.7% | > 90% | 8.3 nM | ≤ 100 nM | – | – | – | – | – | O=C1CCC(c2cccc(-c3ccc(CN4C(=O)CCCC45CC5)cc3)c2Cl)C(=O)N1 (stereo not shown) [Compound 294]
95.2% | > 90% | 7.82 nM | ≤ 100 nM | – | – | – | – | – | CN1CCC[C@H](c2ccc(-c3cccc(C4CCC(=O)NC4=O)c3Cl)cc2)C1=O (stereo partly drawn) [Compound 409, 3-(2-chloro-4′-((R)-1-methyl-2-oxopiperidin-3-yl)-[1,1′-biphenyl]-3-yl)piperidine-2,6-dione]
96.5% | > 90% | 6.85 nM | ≤ 100 nM | – | – | – | – | – | O=C1CCC(c2cccc(-c3ccc(Oc4ncccn4)cc3)c2Cl)C(=O)N1 (stereo not shown) [Compound 360, 3-(2-chloro-4′-(pyrimidin-2-yloxy)-[1,1′-biphenyl]-3-yl)piperidine-2,6-dione]
95.5% | > 90% | 6.17 nM | ≤ 100 nM | – | – | – | – | – | O=C1CCC(c2cccc(-c3ccc(N4C(=O)CCCC45COC5)cc3)c2Cl)C(=O)N1 (stereo not shown) [Compound 407, 3-(2-chloro-4′-(6-oxo-2-oxa-5-azaspiro[3.5]nonan-5-yl)-[1,1′-biphenyl]-3-yl)piperidine-2,6-dione]
97% | > 90% | 5.14 nM | ≤ 100 nM | – | – | – | – | – | CC1CCCC(=O)N1c1ccc(-c2cccc(C3CCC(=O)NC3=O)c2Cl)cc1 (stereo not shown) [Compound 200, 3-(2-chloro-4′-(2-methyl-6-oxopiperidin-1-yl)-[1,1′-biphenyl]-3-yl)piperidine-2,6-dione]
97.7% | > 90% | 4.56 nM | ≤ 100 nM | – | – | – | – | – | CN1CC2(CC2)N(c2ccc(-c3cccc(C4CCC(=O)NC4=O)c3Cl)cc2)C1=O (stereo not shown) [Compound 342, 3-(2-chloro-4′-(6-methyl-5-oxo-4,6-diazaspiro[2.4]heptan-4-yl)-[1,1′-biphenyl]-3-yl)piperidine-2,6-dione]
98.2% | > 90% | 1.99 nM | ≤ 100 nM | – | – | – | – | – | COCc1ccn(C)c(=O)c1-c1ccc(-c2cccc(C3CCC(=O)NC3=O)c2Cl)cc1 (stereo not shown) [Compound 411, 3-(2-chloro-4′-(4-(methoxymethyl)-1-methyl-2-oxo-1,2-dihydropyridin-3-yl)-[1,1′-biphenyl]-3-yl)piperidine-2,6-dione]
